Source: patent US20060069132A1, “Azolecarboxamide herbicides” (priority 2004, published 2006)

How the values were obtained:
wild oat = test: Test B postemergence herbicide test; format: in vivo, Avena fatua
Procedure: (§1) At the same time, plants selected from these crop and weed species and also blackgrass (Alopecurus myosuroides Huds.), wheat (Triticum aestivum L.) and wild oat (Avena fatua L.) were treated with postemergence applications of test chemicals formulated in the same manner. Plants ranged in height from 2 to 18 cm (1- to 4-leaf stage) for postemergence treatments. Plant species in the flooded paddy test consisted of rice (Oryza sativa L.), small flower umbrella sedge (Cyperus difformis L.), ducksalad (Heteranthera limosa (Sw.) Willd.) and barnyardgrass (Echinochloa crus-galli (L.) Beauv.) grown to the 2-leaf stage for testing. Treated plants and controls were maintained in a greenhouse for 13 to 15 days, after which time all species were compared to controls and visually evaluated. Plant response ratings, summarized in Table B, are based on a scale of 0 to 100 where 0 is no effect and 100 is complete control. A dash (-) response means no test result.

lambsquarters = test: Test B pre-/postemergence herbicide test; format: in vivo, Chenopodium album
Excerpt: (§2) Seeds selected from barnyardgrass (Echinochloa crus-galli (L.) Beauv.), Surinam grass (Urochloa decumbens (Staph) R. D. Webster, previously named Brachiaria decumbens Stapf), cocklebur (Xanthium strumarium L.), corn (Zea mays L.), large crabgrass (Digitaria sanguinalis (L.) Scop.), giant foxtail (Setaria faberi Herim.), lambsquarters (Chenopodium album L.), morningglory (Ipomoea coccinea L.), pigweed (Amaranthus retroflexus L.), rice (Oryza sativa L.) and velvetleaf (Abutilon theophrasti Medik.) were planted and treated preemergence with test chemicals formulated in a non-phytotoxic solvent mixture which included a surfactant.
as §1

large crabgrass = test: Test B pre-/postemergence herbicide test; format: in vivo, Digitaria sanguinalis
Excerpt: as §2, §1

cocklebur = test: Test B pre-/postemergence herbicide test; format: in vivo, Xanthium strumarium
Excerpt: as §2, §1

giant foxtail = test: Test B pre-/postemergence herbicide test; format: in vivo, Setaria faberi
Excerpt: as §2, §1

wheat = test: Test B postemergence herbicide test; format: in vivo, Triticum aestivum; parameters: key to Wheat plant response rating: 0 = no effect, 100 = complete control
Procedure: as §1

velvetleaf = test: Test B pre-/postemergence herbicide test; format: in vivo, Abutilon theophrasti
Excerpt: as §2, §1

barnyardgrass [1] = test: Test B flooded paddy test; format: in vivo, Echinochloa crus-galli; details: scale 0 to 100 (0 no effect, 100 complete control)
Procedure: as §1

corn = test: Test B pre-/postemergence herbicide test; format: in vivo, Zea mays
Excerpt: as §2, §1

Surinam grass = test: Test B pre-/postemergence herbicide test; format: in vivo, Urochloa decumbens
Excerpt: as §2, §1

[2] = system: small flower umbrella sedge; test: Test B flooded paddy test; format: in vivo, Cyperus difformis; details: scale 0 to 100 (0 no effect, 100 complete control)
Procedure: as §1

morningglory = test: Test B pre-/postemergence herbicide test; format: in vivo, Ipomoea coccinea
Excerpt: as §2, §1

barnyardgrass [3] = test: Test B pre-/postemergence herbicide test; format: in vivo, Echinochloa crus-galli
Excerpt: as §2, §1

ducksalad = test: Test B flooded paddy test; format: in vivo, Heteranthera limosa; details: 1000 g ai/ha, scale 0 to 100 (0 no effect, 100 complete control)
Procedure: as §1

blackgrass = test: Test B postemergence herbicide test; format: in vivo, Alopecurus myosuroides
Procedure: as §1

pigweed = test: Test B pre-/postemergence herbicide test; format: in vivo, Amaranthus retroflexus
Excerpt: as §2, §1

rice = test: Test B flooded paddy test; format: in vivo, Oryza sativa; details: scale 0 to 100 (0 no effect, 100 complete control)
Procedure: as §1

[4] = Postemergence, 500 g ai/ha, visual rating after 13 to 15 days, scale 0 (no effect) to 100 (complete control)
[5] = postemergence, 125 g ai/ha, visual rating, scale 0 (no effect) to 100 (complete control)
[6] = 500 g ai/ha, visual rating 0-100, 0 no effect, 100 complete control, preemergence
[7] = preemergence, 125 g ai/ha, 0 to 100 scale, 0 is no effect, 100 is complete control
[8] = 1000 g ai/ha, visual rating, 13 to 15 days
[9] = 125 g ai/ha, visual rating, scale 0 (no effect) to 100 (complete control), postemergence
[10] = 125 g ai/ha, 0 is no effect, 100 is complete control, preemergence
[11] = postemergence, 500 g ai/ha, scale 0 to 100, 0 is no effect, 100 is complete control
[12] = 500 g ai/ha, scale 0 to 100, 0 no effect, 100 complete control, preemergence
[13] = Postemergence, 500 g ai/ha, scale 0 (no effect) to 100 (complete control)
[14] = postemergence, 125 g ai/ha, scale 0 to 100

CCON=C(C)c1cccc(NC(=O)c2cc(C(C)(C)C)nn2C)c1 [Compound 105]
Plant response rating, Oat, Wild (wild oat; [4]): 10
Oat, Wild plant response rating (wild oat; [5]): 0
Plant response rating, Lambsquarters (lambsquarters; [6]): 80
Plant response rating, Lambsquarters (lambsquarters; [4]): 80
Lambsquarters plant response rating (lambsquarters; [5]): 50
Plant response rating, Lambsquarters (lambsquarters; [7]): 0
Plant response rating, Crabgrass, Large (large crabgrass; [6]): 90
Plant response rating, Crabgrass, Large (large crabgrass; [4]): 0
Crabgrass, Large plant response rating (large crabgrass; [5]): 0
Plant response rating, Crabgrass, Large (large crabgrass; [7]): 0
Plant response rating, Cocklebur (cocklebur; [6]): 0
Plant response rating, Cocklebur (cocklebur; [4]): 30
Cocklebur plant response rating (cocklebur; [5]): 30
Plant response rating, Cocklebur (cocklebur; [7]): 0
Plant response rating, Foxtail, Giant (giant foxtail; [6]): 10
Plant response rating, Foxtail, Giant (giant foxtail; [4]): 0
Foxtail, Giant plant response rating (giant foxtail; [5]): 0
Plant response rating, Foxtail, Giant (giant foxtail; [7]): 0
Plant response rating, Wheat (wheat; [4]): 0
Wheat plant response rating (wheat; [5]): 0
Plant response rating, Velvetleaf (velvetleaf; [6]): 0
Plant response rating, Velvetleaf (velvetleaf; [4]): 0
Velvetleaf plant response rating (velvetleaf; [5]): 0
Plant response rating, Velvetleaf (velvetleaf; [7]): 0
Barnyardgrass plant response rating (barnyardgrass [1]; [8]): 20
Plant response rating, Corn (corn; [6]): 0
Plant response rating, Corn (corn; [4]): 0
Corn plant response rating (corn; [5]): 0
Plant response rating, Corn (corn; [7]): 0
Plant response rating, Surinam Grass (Surinam grass; [6]): 10
Plant response rating, Surinam Grass (Surinam grass; [4]): 10
Surinam Grass plant response rating (Surinam grass; [5]): 0
Plant response rating, Surinam Grass (Surinam grass; [7]): 0
Sedge, Umbrella plant response rating [2, 8]: 70
Plant response rating, Morningglory (morningglory; [6]): 10
Plant response rating, Morningglory (morningglory; [4]): 10
Morningglory plant response rating (morningglory; [5]): 0
Plant response rating, Morningglory (morningglory; [7]): 0
Plant response rating, Barnyardgrass (barnyardgrass [3]; [6]): 30
Plant response rating, Barnyardgrass (barnyardgrass [3]; [4]): 0
Barnyardgrass plant response rating (barnyardgrass [3]; [5]): 0
Plant response rating, Barnyardgrass (barnyardgrass [3]; [7]): 0
Ducksalad plant response rating (ducksalad; visual rating, 13 to 15 days): 70
Plant response rating, Blackgrass (blackgrass; [4]): 0
Blackgrass plant response rating (blackgrass; [5]): 0
Plant response rating, Pigweed (pigweed; [6]): 80
Plant response rating, Pigweed (pigweed; [4]): 80
Pigweed plant response rating (pigweed; [5]): 0
Plant response rating, Pigweed (pigweed; [7]): 0
Rice plant response rating (rice; [8]): 0

CCNC(=O)c1ccc(F)c(NC(=O)c2nn(C(C)(C)C)nc2CC)c1 [Compound 362]
Oat, Wild plant response rating (wild oat; [9]): 20
Plant response rating (0 to 100 scale), Lambsquarters (lambsquarters; [10]): 0
Lambsquarters plant response rating (lambsquarters; [9]): 10
Plant response rating (0 to 100 scale), Crabgrass, Large (large crabgrass; [10]): 20
Crabgrass, Large plant response rating (large crabgrass; [9]): 0
Crabgrass, Large plant response rating (large crabgrass; [11]): 0
Plant response rating (0 to 100 scale), Cocklebur (cocklebur; [10]): 0
Cocklebur plant response rating (cocklebur; [9]): 10
Cocklebur plant response rating (cocklebur; [11]): 30
Plant response rating (0 to 100 scale), Foxtail, Giant (giant foxtail; [10]): 10
Foxtail, Giant plant response rating (giant foxtail; [9]): 10
Foxtail, Giant plant response rating (giant foxtail; [11]): 10
Wheat plant response rating (wheat; [9]): 0
Wheat plant response rating (wheat; [12]): 30
Plant response rating (0 to 100 scale), Velvetleaf (velvetleaf; [10]): 0
Velvetleaf plant response rating (velvetleaf; [9]): 0
Barnyardgrass plant response rating (barnyardgrass [1]; 1000 g ai/ha): 50
Plant response rating (0 to 100 scale), Corn (corn; [10]): 0
Corn plant response rating (corn; [9]): 0
Corn plant response rating (corn; [11]): 0
Plant response rating (0 to 100 scale), Surinam Grass (Surinam grass; [10]): 10
Surinam Grass plant response rating (Surinam grass; [9]): 10
Sedge, Umbrella plant response rating ([2]; 1000 g ai/ha): 90
Plant response rating (0 to 100 scale), Morningglory (morningglory; [10]): 0
Morningglory plant response rating (morningglory; [9]): 10
Plant response rating (0 to 100 scale), Barnyardgrass (barnyardgrass [3]; [10]): 10
Barnyardgrass plant response rating (barnyardgrass [3]; [9]): 0
Barnyardgrass plant response rating (barnyardgrass [3]; [11]): 0
Ducksalad plant response rating (ducksalad): 90
Blackgrass plant response rating (blackgrass; [9]): 10
Blackgrass plant response rating (blackgrass; [11]): 20
Plant response rating (0 to 100 scale), Pigweed (pigweed; [10]): 0
Pigweed plant response rating (pigweed; [9]): 20
Rice plant response rating (rice; 1000 g ai/ha): 60

CCNC(=O)c1ccc(F)c(NC(=O)c2nn(C(C)(C)CC)nc2CC)c1 [Compound 370]
Oat, Wild plant response rating (wild oat; [9]): 0
Oat, Wild plant response rating (wild oat; [13]): 0
Plant response rating (0 to 100 scale), Lambsquarters (lambsquarters; [10]): 80
Lambsquarters plant response rating (lambsquarters; [9]): 0
Lambsquarters plant response rating (lambsquarters; [13]): 20
Plant response rating (0 to 100 scale), Crabgrass, Large (large crabgrass; [10]): 10
Crabgrass, Large plant response rating (large crabgrass; [9]): 10
Crabgrass, Large plant response rating (large crabgrass; [11]): 10
Plant response rating (0 to 100 scale), Cocklebur (cocklebur; [10]): 0
Cocklebur plant response rating (cocklebur; [9]): 0
Cocklebur plant response rating (cocklebur; [11]): 0
Plant response rating (0 to 100 scale), Foxtail, Giant (giant foxtail; [10]): 0
Foxtail, Giant plant response rating (giant foxtail; [9]): 0
Foxtail, Giant plant response rating (giant foxtail; [11]): 20
Wheat plant response rating (wheat; [9]): 0
Wheat plant response rating (wheat; [12]): 0
Wheat plant response rating (wheat; [13]): 0
Plant response rating (0 to 100 scale), Velvetleaf (velvetleaf; [10]): 0
Velvetleaf plant response rating (velvetleaf; [9]): 10
Velvetleaf plant response rating (velvetleaf; [13]): 20
Barnyardgrass plant response rating (barnyardgrass [1]; 1000 g ai/ha): 0
Plant response rating (0 to 100 scale), Corn (corn; [10]): 0
Corn plant response rating (corn; [9]): 10
Corn plant response rating (corn; [11]): 10
Plant response rating (0 to 100 scale), Surinam Grass (Surinam grass; [10]): 0
Surinam Grass plant response rating (Surinam grass; [9]): 10
Surinam Grass plant response rating (Surinam grass; [13]): 10
Sedge, Umbrella plant response rating ([2]; 1000 g ai/ha): 40
Plant response rating (0 to 100 scale), Morningglory (morningglory; [10]): 0
Morningglory plant response rating (morningglory; [9]): 10
Morningglory plant response rating (morningglory; [13]): 20
Plant response rating (0 to 100 scale), Barnyardgrass (barnyardgrass [3]; [10]): 10
Barnyardgrass plant response rating (barnyardgrass [3]; [9]): 0
Barnyardgrass plant response rating (barnyardgrass [3]; [11]): 0
Ducksalad plant response rating (ducksalad): 60
Blackgrass plant response rating (blackgrass; [9]): 0
Blackgrass plant response rating (blackgrass; [11]): 10
Plant response rating (0 to 100 scale), Pigweed (pigweed; [10]): 40
Pigweed plant response rating (pigweed; [9]): 0
Pigweed plant response rating (pigweed; [13]): 30
Rice plant response rating (rice; 1000 g ai/ha): 30

CCN(CC)C(=O)c1cccc(NC(=O)c2nn(C(C)(C)C)nc2C)n1 [Compound 440]
Oat, Wild plant response rating (wild oat; [13]): 30
Oat, Wild plant response rating (wild oat; [14]): 20
Lambsquarters plant response rating (lambsquarters; [13]): 10
Lambsquarters plant response rating (lambsquarters; [14]): 0
Crabgrass, Large plant response rating (large crabgrass; [13]): 10
Crabgrass, Large plant response rating (large crabgrass; [14]): 0
Cocklebur plant response rating (cocklebur; [13]): 0
Cocklebur plant response rating (cocklebur; [14]): 0
Foxtail, Giant plant response rating (giant foxtail; [13]): 0
Foxtail, Giant plant response rating (giant foxtail; [14]): 0
Wheat plant response rating (wheat; [12]): 0
Wheat plant response rating (wheat; [13]): 0
Wheat plant response rating (wheat; [14]): 0
Velvetleaf plant response rating (velvetleaf; [13]): 0
Velvetleaf plant response rating (velvetleaf; [14]): 0
Barnyardgrass plant response rating (barnyardgrass [1]; 125 g ai/ha): 0
Corn plant response rating (corn; [13]): 20
Corn plant response rating (corn; [14]): 0
Surinam Grass plant response rating (Surinam grass; [13]): 10
Surinam Grass plant response rating (Surinam grass; [14]): 0
Sedge, Umbrella plant response rating ([2]; 125 g ai/ha): 0
Morningglory plant response rating (morningglory; [13]): 20
Morningglory plant response rating (morningglory; [14]): 0
Barnyardgrass plant response rating (barnyardgrass [3]; Postemergence, 125 g ai/ha, scale 0 (no effect) to 100 (complete control)): 0
Barnyardgrass plant response rating (barnyardgrass [3]; [13]): 0
Blackgrass plant response rating (blackgrass; [13]): 20
Blackgrass plant response rating (blackgrass; [14]): 20
Pigweed plant response rating (pigweed; [13]): 10
Pigweed plant response rating (pigweed; [14]): 0
Rice plant response rating (rice; 125 g ai/ha): 0
